The values below come from patent US20040156874A1, “Urea- a topical anti-inflammatory” (Bradley Pharmaceuticals, Inc., priority 2003, published 2004).

For test [1], the system named is horny layer of the skin. The following applies: normal horny layer or ichthyotic/psoriatic scales soaked in 30% urea solution; cited from earlier work.
For test [2], the system named is common organisms. Conditions: high concentrations of urea, such as 40%; cited from earlier work.
Test [3] has as its system dermal inflammation. Description: topical urea applied to inflamed skin. The class given is in vivo.

Consider `NC(N)=O` [urea], for which, in test [1], the “water uptake of horny layer” value was “take up much more water”. Besides, the antibacterial effect entry in test [2] is on record as “mild, antibacterial effect”. The dermal inflammation entry in test [3] (formulated in a pharmaceutically acceptable base) was “improvement”. Also, the “effectiveness against inflammation due to microbial infection” value in test [3] (inflammation due to microbial infection) is reported as “particularly effective”.
